According to US20190029252A1, “Use of Herbicide-tolerant Protein” (BEIJING DABEINONG TECHNOLOGY GROUP CO., LTD., priority 2016, published 2019):

What was measured:
Type in all cases: in vivo
[1] = test system: Gm cytoplasmic ALT-3-01 soybean plants; assay: Glyphosate tolerance of soybean plants, herbicide damage rate; settings: 840 g ae/ha (1-fold field concentration), 14 DAT
Text: (§1) The herbicide tolerance effects of Gm cytoplasmic ALT-1-01 soybean plants, Gm chloroplastic ALT-1-01 soybean plants, Gm cytoplasmic ALT-2-01 soybean plants, Gm chloroplastic ALT-2-01 soybean plants, Gm cytoplasmic ALT-3-01 soybean plants, Gm chloroplastic ALT-3-01 soybean plants and wild-type soybean plants on glyphosate were detected (at seedling stage), respectively.
(§2) 2 strains from Gm cytoplasmic ALT-1-01 soybean plants, Gm chloroplastic ALT-1-01 soybean plants, Gm cytoplasmic ALT-2-01 soybean plants, Gm chloroplastic ALT-2-01 soybean plants, Gm cytoplasmic ALT-3-01 soybean plants, Gm chloroplastic ALT-3-01 soybean plants and wild-type soybean plants were respectively taken each, and 10-15 plants were selected from each strain and tested. The plants above were sprayed with glyphosate (840 g ae/ha, 1-fold field concentration) and a blank solvent (water). The herbicide damage rate was measured for each plant according to the phytotoxicity symptoms 14 days after spraying (14 DAT): herbicide damage rate (%)=Σ(number of damaged plants at the same level× level number)/(total number of plants×highest level).

[2] = test system: Gm chloroplastic ALT-3-01 soybean plants; assay: as above; settings: 840 g ae/ha (1-fold field concentration), 14 DAT
Text: as §1, §2

[3] = test system: Gm chloroplastic ALT-2-01 soybean plants; assay: as above; settings: 840 g ae/ha (1-fold field concentration), 14 DAT
Text: as §1, §2

[4] = test system: Gm chloroplastic ALT-1-01 soybean plants; assay: as above; settings: 840 g ae/ha (1-fold field concentration), 14 DAT
Text: as §1, §2

[5] = test system: Gm cytoplasmic ALT-1-01 soybean plants; assay: as above; settings: 840 g ae/ha (1-fold field concentration), 14 DAT
Text: as §1, §2

[6] = test system: Gm cytoplasmic ALT-2-01 soybean plants; assay: as above; settings: 840 g ae/ha (1-fold field concentration), 14 DAT
Text: as §1, §2

[7] = test system: wild-type soybean plants (CK1); assay: as above; settings: 840 g ae/ha (1-fold field concentration), 14 DAT
Text: as §1, §2

[8] = test system: At cytoplasmic ALT-3-01 T1 plants; assay: Herbicide tolerance of Arabidopsis thaliana T1 plants, sprayed, resistance classes counted 14 days after spraying; settings: sprayed at 1-fold field concentration
Text: (§3) T1 transformants were initially selected from the background of untransformed seeds using a glufosinate selection scheme. About 40000 T1 seeds were screened, and 380 T1 positive transformants (PAT gene) were identified with a transformation efficiency of about 0.95%. The plants that were transformed with the recombinant expression vector DBN100632 were Arabidopsis thaliana plants having an ALT-1-01 nucleotide sequence located in the cytoplasm introduced (At cytoplasmic ALT-1-01), and the plants that were transformed with the recombinant expression vector DBN100631 were Arabidopsis thaliana plants having an ALT-1-01 nucleotide sequence located in the chloroplast introduced (At chloroplastic ALT-1-01); the plants that were transformed with the recombinant expression vector DBN100634 were Arabidopsis thaliana plants having an ALT-2-01 nucleotide sequence located in the cytoplasm introduced (At cytoplasmic ALT-2-01), and the plants that were transformed with the recombinant expression vector DBN100633 were Arabidopsis thaliana plants having an ALT-2-01 nucleotide sequence located in the chloroplast introduced (At chloroplastic ALT-2-01); and the plants that were transformed with the recombinant expression vector DBN100636 were Arabidopsis thaliana plants having an ALT-3-01 nucleotide sequence located in the cytoplasm introduced (At cytoplasmic ALT-3-01), and the plants that were transformed with the recombinant expression vector DBN100635 were Arabidopsis thaliana plants having an ALT-3-01 nucleotide sequence located in the chloroplast introduced (At chloroplastic ALT-3-01).
(§4) Plants were counted for the resistance situations 14 days after spraying: those having a consistent growth status with the blank solvent (water) group after 14 days were classified as highly resistant plants, those having a bolting height less than ½ of that of the blank solvent (water) group after 14 days were classified as moderately resistant plants, those still not capable of bolting after 14 days were classified as poorly resistant plants, and those dead after 14 days were classified as non-resistant plants. Since each Arabidopsis thaliana T1 plant was an independent transformation event, a significant difference in individual T1 responses could be expected at a given dose.
as §4, with “situation” for “situations”

[9] = test system: At cytoplasmic ALT-1-01 T1 plants; assay: as above; settings: sprayed at 1-fold field concentration
Text: as §3, §4
as §4, with “situation” for “situations”

[10] = test system: At chloroplastic ALT-3-01 T1 plants; assay: as above; settings: sprayed at 1-fold field concentration
Text: as §3, §4
as §4, with “situation” for “situations”

[11] = test system: At chloroplastic ALT-1-01 T1 plants; assay: as above; settings: sprayed at 1-fold field concentration
Text: as §3, §4
as §4, with “situation” for “situations”

[12] = test system: At cytoplasmic ALT-2-01 T1 plants; assay: as above; settings: sprayed at 1-fold field concentration
Text: as §3, §4
as §4, with “situation” for “situations”

[13] = test system: At chloroplastic ALT-2-01 T1 plants; assay: as above; settings: sprayed at 1-fold field concentration
Text: as §3, §4
as §4, with “situation” for “situations”

[14] = test system: wild-type Arabidopsis thaliana plants; assay: Herbicide tolerance of Arabidopsis thaliana plants, sprayed, resistance classes counted 14 days after spraying; settings: wild-type; sprayed at 1-fold field concentration; 14 days after spraying
Text: as §3, §4
as §4, with “situation” for “situations”

[15] = test system: transformed Arabidopsis thaliana T1 plants (ALT-1, ALT-2 and ALT-3); assay: Herbicide tolerance of transgenic Arabidopsis thaliana T1 plants, overall conclusion; settings: all transformed Arabidopsis thaliana T1 plants; 1-fold field concentration
Text: as §4
as §4, with “situation” for “situations”

Compound	Highly resistant (number of plants) [8]	Moderately resistant (number of plants) [8]	Non-resistant (number of plants) [8]	Poorly resistant (number of plants) [8]	Highly resistant (number of plants) [9]	Moderately resistant (number of plants) [9]	Non-resistant (number of plants) [9]	Poorly resistant (number of plants) [9]	Highly resistant (number of plants) [10]	Moderately resistant (number of plants) [10]	Non-resistant (number of plants) [10]	Poorly resistant (number of plants) [10]	Highly resistant (number of plants) [11]	Moderately resistant (number of plants) [11]	Non-resistant (number of plants) [11]	Poorly resistant (number of plants) [11]	Highly resistant (number of plants) [12]	Moderately resistant (number of plants) [12]	Non-resistant (number of plants) [12]	Poorly resistant (number of plants) [12]	further results
O=C(O)CNCP(=O)(O)O [glyphosate, N-phosphonomethylglycine]																					glyphosate herbicide damage rate [1]: ~0%; glyphosate herbicide damage rate [2]: ~0%; glyphosate herbicide damage rate [3]: ~0%; glyphosate herbicide damage rate [4]: ~0%; glyphosate herbicide damage rate [5]: ~0%; glyphosate herbicide damage rate [6]: ~0%; glyphosate herbicide damage rate [7]: not less than 90%
COC(=O)c1ccc(I)cc1S(=O)(=O)NC(=O)Nc1nc(C)nc(OC)n1 [iodosulfuron-methyl]	0	0	30	0	0	0	29	0	0	0	32	0	0	0	30	0	0	0	30	0	Highly resistant (number of plants) [13]: 0; Moderately resistant (number of plants) [13]: 0; Non-resistant (number of plants) [13]: 31; Poorly resistant (number of plants) [13]: 0; Highly resistant (number of plants) [14]: 0; Moderately resistant (number of plants) [14]: 0; Non-resistant (number of plants) [14]: 29; Poorly resistant (number of plants) [14]: 0; ability of the transformed plants to degrade the herbicide (in words) [15]: did not exhibit the ability to degrade
COC(=O)c1ccc(CNS(C)(=O)=O)cc1S(=O)(=O)NC(=O)Nc1nc(OC)cc(OC)n1 [mesosulfuron]	0	0	30	0	0	0	29	0	0	0	32	0	0	0	32	0	0	0	32	0	Highly resistant (number of plants) [13]: 0; Moderately resistant (number of plants) [13]: 0; Non-resistant (number of plants) [13]: 30; Poorly resistant (number of plants) [13]: 0; Highly resistant (number of plants) [14]: 0; Moderately resistant (number of plants) [14]: 0; Non-resistant (number of plants) [14]: 28; Poorly resistant (number of plants) [14]: 0; ability of the transformed plants to degrade the herbicide (in words) [15]: did not exhibit the ability to degrade
Cc1cc(C)nc(NC(=O)NS(=O)(=O)c2ccccc2C(=O)OC2COC2)n1 [oxasulfuron]	0	0	30	0	0	0	28	0	0	0	31	0	0	0	30	0	0	0	30	0	Highly resistant (number of plants) [13]: 0; Moderately resistant (number of plants) [13]: 0; Non-resistant (number of plants) [13]: 30; Poorly resistant (number of plants) [13]: 0; Highly resistant (number of plants) [14]: 0; Moderately resistant (number of plants) [14]: 0; Non-resistant (number of plants) [14]: 28; Poorly resistant (number of plants) [14]: 0; ability of the transformed plants to degrade the herbicide (in words) [15]: did not exhibit the ability to degrade
